From patent US20050176806A1, “Use of substituted cyanopyrrolidines and combination preparations containing them for treating hyperlipidemia and associated diseases” (priority 2002, published 2005)

Test system: patients with a diagnosis of Type 2 diabetes mellitus
Assay: Evaluation of the Effects of Compound IC on Human Lipid Profiles
Type: in vivo
Conditions: compound IC 100 mg or 200 mg OD for four weeks, compared to placebo
From the text: Evaluation of the Effects of Compound IC on Human Lipid Profiles Sixty (60) patients comprised of male and non-fertile female patients aged at least 30 years with a diagnosis of Type 2 diabetes mellitus of at least three months duration, who have been treated with diet alone for at least one month prior to study entry were selected. The study was broken down into two periods. Period 1 was the four weeks prior to the beginning of the study, with period 2 being four weeks and being the actual study period when patients were treated with compound IC. Accordingly, study entry was Week −4 and the endpoint was after the fourth week of Period 2. Patients were randomized in a ratio of 1:1:1 as follows: compound IC at 200 mg once a day (OD), compound IC at 100 mg OD and placebo. The patients received compound IC 30 minutes before breakfast. There were 5 test days in the study. Patients attended as outpatients for fasting blood sampling at Week −4 (study entry), Week −2 and Week 2 and as inpatients for 24 hours on Week 0 (=baseline) and Week 4 (=endpoint). On the two inpatient test days, the total caloric intake of breakfast, lunch and dinner was standardized and standard test meals were administered in place of breakfast and dinner. Triglycerides, total cholesterol and lipid fractions (LDL, VLDL and HDL) were measured during 24 hours following the breakfast standard meal. […] On the two inpatient test days, patients fasted for at least 7 hours, i.e., no food or drinks (except water) after midnight on the day before the scheduled visit, and attended the clinic at 07.00 h. On each of the two test days, the total caloric intake during 24 hours was standardized and standard test meals were administered for breakfast (about 08.00 h) and dinner (about 18.00 h). Lunch was taken at approximately 13.00 h. On Day 1, no compound IC was administered but at Week 4, patients took compound IC as normal, 30 minutes before the standard breakfast. Triglycerides, total cholesterol and lipid fractions (LDL, VLDL and HDL) were evaluated. Triglycerides, total cholesterol and HDL were measured and LDL and VLDL calculated according to the method of Friedewald et al., “Estimation of the Concentration of Low-Density Lipoprotein Cholesterol Without the Use of the Preparative Centrifuge”, Clin. Chem., Vol. 18, No. 6, pp. 499-502 (1972).

[1] = calculated according to Friedewald et al.
[2] = measured during 24 hours following breakfast standard meal

N#C[C@@H]1CCCN1C(=O)CNC12CC3CC(CC(O)(C3)C1)C2 [compound IC]
markedly lowered: levels of LDL [1] | levels of VLDL [1] | levels of total cholesterol [2] | levels of triglyceride [2]
